Test results from PMC10233829 (ACS Omega, 2023).
Values after ≈ are worked out from the molar mass of the structure shown.

Legend:
P. aeruginosa 659 = test: MIC, twofold microdilution, clinical strain; assay type: cell-based; conditions: Pseudomonas aeruginosa, 18 h
E. coli 520 = test: MIC, twofold microdilution, clinical strain; assay type: cell-based; conditions: Escherichia coli, 18 h
S. aureus T5595 = test: MIC, twofold microdilution, clinical strain; assay type: cell-based, Staphylococcus aureus; conditions: Staphylococcus aureus, T5595, 18 h
K. pneumoniae 28 = test: MIC, twofold microdilution, clinical strain; assay type: cell-based; conditions: Klebsiella pneumoniae, 18 h
PC3 cells = test: MTT assay, cytotoxic activity; assay type: cell-based, human; conditions: Homo sapiens, PC-3, 72 h, MTT, 72 h
Summary of the method: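 Cytotoxicity readout: relative MTT level (%), i.e. absorbance of compound-treated PC3 cells divided by that of untreated controls, ×100. Cultures were kept in a humidified 37 °C, 5% CO2 incubator.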

S. epidermidis 5253 = test: MIC, twofold microdilution, clinical strain; assay type: cell-based, Staphylococcus epidermidis; conditions: Staphylococcus epidermidis, 5253, 18 h
E. coli 600 = test: MIC, twofold microdilution, clinical strain; assay type: cell-based, Escherichia coli; conditions: Escherichia coli, 600, 18 h
[1] = MTT assay, cytotoxic activity; assay type: cell-based; conditions: human, HaCaT cells (immortal keratinocytes); MTT, 72 h, normal cell line; read-out: IC50 HaCaT
Summary of the method: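 Viability was calculated as A/B × 100%, with A the absorbance of treated samples and B that of untreated controls, from MTT reduction. Cells were cultured in a humidified 37 °C/5% CO2 incubator.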

P. aeruginosa ATCC 15442 = test: MIC, twofold microdilution, standard strain; assay type: cell-based, Pseudomonas aeruginosa
K. pneumoniae 510 = test: MIC, twofold microdilution, clinical strain; assay type: cell-based, Klebsiella pneumoniae
S. epidermidis 4341 = test: MIC, twofold microdilution, clinical strain; assay type: cell-based; conditions: Staphylococcus epidermidis, 18 h
M. tuberculosis H37Rv = test: Tuberculostatic activity, Microplate Alamar Blue Assay (MIC); assay type: cell-based, Mycobacterium tuberculosis; conditions: Mycobacterium tuberculosis, H37RV; MABA; read-out: MIC M. tuberculosis H37Rv
[2] = system: S. epidermidis ATCC 12228; test: MIC, twofold microdilution, standard strain; assay type: cell-based; conditions: Staphylococcus epidermidis, ATCC12228, 18 h
[3] = system: clinical bacterial strains; test: MIC, clinical isolates as groups of strains; assay type: cell-based; conditions: S. aureus 180 and 5595
E. coli ATCC 25922 = test: MIC, twofold microdilution, standard strain; assay type: cell-based, Escherichia coli
[4] = system: S. epidermidis ATCC 35984; test: MIC, twofold microdilution, standard strain; assay type: cell-based; conditions: Staphylococcus epidermidis, ATCC35984, 18 h
S. aureus ATCC 29213 = test: MIC, twofold microdilution, standard strain; assay type: cell-based; conditions: Staphylococcus aureus, ATCC29213, 18 h
S. aureus ATCC 25923 = test: MIC, twofold microdilution, standard strain; assay type: cell-based; conditions: Staphylococcus aureus, ATCC25923, 18 h
S. aureus T5591 = test: MIC, twofold microdilution, clinical strain; assay type: cell-based, Staphylococcus aureus; conditions: Staphylococcus aureus, T5591, 18 h
E. coli 951 = test: MIC, twofold microdilution, clinical strain; assay type: cell-based; conditions: Escherichia coli, 18 h
P. aeruginosa 37 = test: MIC, twofold microdilution, clinical strain; assay type: cell-based; conditions: Pseudomonas aeruginosa, 18 h
S. aureus 180 = test: MIC, twofold microdilution, clinical strain; assay type: cell-based; conditions: Staphylococcus aureus, 18 h
[5] = system: M. tuberculosis Spec. 192; test: Tuberculostatic activity, Microplate Alamar Blue Assay (MIC); assay type: cell-based; conditions: Mycobacterium tuberculosis, MABA, read-out: MIC M. tuberculosis Spec. 192 (sensitive to tuberculostatics)
S. pasteuri KR 4358 = test: MIC, twofold microdilution, clinical strain; assay type: cell-based; conditions: Staphylococcus pasteuri, KR4358, 18 h
S. aureus ATCC 6538 = test: MIC, twofold microdilution, standard strain; assay type: cell-based, Staphylococcus aureus
S. epidermidis KR4243/1 = test: MIC, twofold microdilution, clinical strain; assay type: cell-based; conditions: Staphylococcus epidermidis, 18 h
S. aureus NCTC 4163 = test: MIC, twofold microdilution, standard strain; assay type: cell-based; conditions: Staphylococcus aureus, NCTC4163, 18 h
S. aureus 5595 = test: MIC, twofold microdilution, clinical strain; assay type: cell-based; conditions: Staphylococcus aureus, 18 h
E. cloacae 8 = test: MIC, twofold microdilution, clinical strain; assay type: cell-based, Escherichia cloacae; conditions: Enterobacter cloacae, 8; clinical strain, 18 h

Question: Which results are given for `O=C(O)c1cn(C2CC2)c2cc(N3CCN(C(=O)CCCBr)CC3)c(F)cc2c1=O` [Compound 10, 7-[4-(4-Bromobutyryl)-piperazin-1-yl]-1-cyclopropyl-6-fluoro-4-oxo-1,4-dihydro-quinoline-3-carboxylic Acid]?
Answer: MIC (P. aeruginosa 659): 0.8 µg/mL (≈ 1.67 µM); MIC (E. coli 520): 0.1 µg/mL (≈ 0.208 µM); MIC (S. aureus T5595): 0.8 µg/mL (≈ 1.67 µM); MIC (K. pneumoniae 28): > 25.6 µg/mL; IC50 (PC3 cells): 84.1 ± 7.3 µM; MIC (S. epidermidis 5253): > 25.6 µg/mL; MIC (E. coli 600): 0.05 µg/mL (≈ 0.104 µM); IC50 at 72 h [1]: 89.1 ± 2.1 µM; MIC (P. aeruginosa ATCC 15442; Pseudomonas aeruginosa, ATCC15442, standard strain, 18 h): 0.1 µg/mL (≈ 0.208 µM); MIC used in biofilm eradication assay, P. aeruginosa 15442 (P. aeruginosa ATCC 15442; Table S1, MIC): 0.100 µg/mL (≈ 0.208 µM); share of the reference (CP) activity (K. pneumoniae 510; Klebsiella pneumoniae rods): 62.5%; MIC (K. pneumoniae 510; Klebsiella pneumoniae, 510, clinical strain, 18 h): 6.4 µg/mL (≈ 13.3 µM); MIC (S. epidermidis 4341): 25.6 µg/mL (≈ 53.3 µM); MIC (M. tuberculosis H37Rv): 1 µg/mL (≈ 2.08 µM); MIC [2]: 0.2 µg/mL (≈ 0.416 µM); share of CP inhibitory activity [3]: 62.5%; MIC (E. coli ATCC 25922; Escherichia coli, ATCC25922, standard strain, 18 h): 0.025 µg/mL (≈ 0.052 µM); MIC used in biofilm eradication assay, E. coli ATCC 25922 (E. coli ATCC 25922; Table S1, MIC): 0.025 µg/mL (≈ 0.052 µM); MIC [4]: 0.1 µg/mL (≈ 0.208 µM); MIC (S. aureus ATCC 29213): 0.4 µg/mL (≈ 0.833 µM); MIC (S. aureus ATCC 25923): 0.4 µg/mL (≈ 0.833 µM); MIC (S. aureus T5591): 0.8 µg/mL (≈ 1.67 µM); MIC (E. coli 951): 0.4 µg/mL (≈ 0.833 µM); MIC (P. aeruginosa 37): 0.8 µg/mL (≈ 1.67 µM); MIC (S. aureus 180): 0.8 µg/mL (≈ 1.67 µM); MIC [5]: 0.5 µg/mL (≈ 1.04 µM); MIC (S. pasteuri KR 4358): 0.2 µg/mL (≈ 0.416 µM); MIC (S. aureus ATCC 6538; Staphylococcus aureus, ATCC6538, standard strain, 18 h): 0.2 µg/mL (≈ 0.416 µM); MIC used in biofilm eradication assay, S. aureus 6538 (S. aureus ATCC 6538; Table S1, MIC): 0.200 µg/mL (≈ 0.416 µM); MIC (S. epidermidis KR4243/1): 0.4 µg/mL (≈ 0.833 µM); MIC (S. aureus NCTC 4163): 0.2 µg/mL (≈ 0.416 µM); MIC (S. aureus 5595): 0.8 µg/mL (≈ 1.67 µM); MIC (E. cloacae 8): 0.05 µg/mL (≈ 0.104 µM)
